pIC50: −log10 of the molar value. ≈ marks a conversion by molar mass, not a printed value. Calls of active or inactive are those of the source. No cut-off for these calls is given here.
Legend:
[1] = molecular target: Replicase polyprotein 1ab (Severe acute respiratory syndrome coronavirus 2) (UniProt P0DTD1); conditions: time 30.0 min
[2] = Metabolic stability in human liver microsomes assessed as intrinsic clearance; type: ADME, Microsome
[3] = Kinetic solubility in phosphate buffer solution at pH 7.4; type: physicochemical; conditions: read-out: Kinetic_solubility
[4] = Metabolic stability in human liver microsomes assessed as half life; type: ADME, Microsome
[5] = Plasma protein binding in human assessed as unbound fraction; type: ADME, cell-free
Vero C1008 = experiment: Cytotoxicity against african green monkey Vero E6 cells by CCK-8 assay; type: toxicity, cell-based; conditions: chlorocebus sabaeus
Cathepsin D = Cathepsin D (Homo sapiens, UniProt P07339); experiment: Inhibition of human Cathepsin D using fluorogenic substrate by FRET-based assay
Sequence of Cathepsin D (P07339 65-162 limits assumed): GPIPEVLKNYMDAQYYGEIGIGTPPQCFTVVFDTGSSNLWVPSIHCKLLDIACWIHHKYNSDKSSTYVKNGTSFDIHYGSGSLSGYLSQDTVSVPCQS
Sequence of Cathepsin D (P07339 169-412 limits assumed): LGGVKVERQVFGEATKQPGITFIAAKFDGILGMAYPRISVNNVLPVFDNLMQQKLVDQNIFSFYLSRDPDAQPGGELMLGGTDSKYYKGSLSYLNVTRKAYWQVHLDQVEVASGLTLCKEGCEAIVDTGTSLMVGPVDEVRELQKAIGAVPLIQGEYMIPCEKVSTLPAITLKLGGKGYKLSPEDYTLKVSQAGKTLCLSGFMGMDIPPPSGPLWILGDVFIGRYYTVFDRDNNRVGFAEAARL

Cathepsin B = Cathepsin B (Homo sapiens, UniProt P07858); experiment: Inhibition of human Cathepsin B using fluorogenic substrate by FRET-based assay
Procathepsin L = Procathepsin L (Homo sapiens, UniProt P07711); experiment: Inhibition of human Cathepsin L using fluorogenic substrate by FRET-based assay
Sequence of Procathepsin L (P07711 whole entry): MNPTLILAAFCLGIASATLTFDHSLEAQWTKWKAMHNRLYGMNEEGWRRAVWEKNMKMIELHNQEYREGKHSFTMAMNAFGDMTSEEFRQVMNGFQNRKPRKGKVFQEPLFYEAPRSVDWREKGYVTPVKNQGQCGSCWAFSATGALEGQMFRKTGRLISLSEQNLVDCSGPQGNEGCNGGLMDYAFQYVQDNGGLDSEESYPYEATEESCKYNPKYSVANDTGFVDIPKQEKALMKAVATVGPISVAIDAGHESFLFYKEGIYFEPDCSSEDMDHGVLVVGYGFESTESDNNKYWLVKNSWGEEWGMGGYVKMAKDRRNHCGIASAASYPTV

Caspase-2 = molecular target: T1, Caspase-2 (Homo sapiens, UniProt P42575); experiment: Inhibition of human Caspase 2 using fluorogenic substrate by FRET-based assay
T1 sequence (P42575 whole entry): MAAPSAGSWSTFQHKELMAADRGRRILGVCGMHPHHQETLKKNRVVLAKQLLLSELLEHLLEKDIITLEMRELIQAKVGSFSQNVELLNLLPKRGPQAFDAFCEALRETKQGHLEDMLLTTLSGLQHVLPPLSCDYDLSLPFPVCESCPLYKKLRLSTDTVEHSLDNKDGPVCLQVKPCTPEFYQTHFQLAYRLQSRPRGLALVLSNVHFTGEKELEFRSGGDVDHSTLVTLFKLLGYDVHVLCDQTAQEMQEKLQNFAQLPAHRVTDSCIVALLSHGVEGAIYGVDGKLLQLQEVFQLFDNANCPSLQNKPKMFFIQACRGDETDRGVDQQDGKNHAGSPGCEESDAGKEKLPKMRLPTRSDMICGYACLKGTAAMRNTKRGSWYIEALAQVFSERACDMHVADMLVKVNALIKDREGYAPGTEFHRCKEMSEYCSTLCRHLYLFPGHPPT

Prothrombin = Prothrombin (Homo sapiens, UniProt P00734); experiment: Inhibition of human Thrombin using fluorogenic substrate by FRET-based assay

Row | SMILES | inhibition [1] | CLH [2] [µL/min/mg] | solubility kinetic [3] [µM] | t1/2 [4] [min] | Fu [5] [%] | CC50 (Vero C1008) [µM] | pIC50 (Cathepsin D) | pIC50 (Cathepsin B) | pIC50 (Procathepsin L) | pIC50 (Caspase-2) | pIC50 (Prothrombin)
1 | O=c1c2c(O)c(O)c(O)cc2nc(-c2ccccc2)n1C1CCCC1 | Active | – | – | – | – | – | – | – | – | – | –
2 | CC(C)Cc1nc2cc(O)c(O)c(O)c2c(=O)n1-c1ccccc1 | Active | 68.34 | 156 (≈ 50.9 µg/mL) | 20.28 | 2.61 | > 50 | – | – | – | – | –
3 | O=c1cc(-c2ccccc2)oc2cc(O)c(O)c(O)c12 [BAICALEIN] | – | 333.05 | 112 (≈ 30.3 µg/mL) | 4.16 | 0.93 | > 50 | – | – | – | – | –
4 | O=c1c2c(O)c(O)c(O)cc2nc(-c2ccccc2)n1-c1ccccc1 | Active | 108.68 | 179 (≈ 62.1 µg/mL) | 12.75 | 0.7 | > 50 | < 5.00 | < 5.00 | < 5.00 | < 5.00 | < 5.00
5 | Cc1cc(-n2c(CC(C)C)nc3cc(O)c(O)c(O)c3c2=O)ccc1F | Active | – | – | – | 3.17 | > 50 | – | – | – | – | –
6 | O=c1c2c(O)c(O)c(O)cc2nc(Cc2ccccc2)n1-c1ccccc1 | Active | – | – | – | – | – | – | – | – | – | –
